In the test the test system is PKC. Kind of test: PKC activation (aggregation and translocation of PKC-α, confocal microscopy). It is filed as cell-based, human. The following applies: near-senescent cells (passage 29); 30 μg/ml LPA. As to the method: FIG. 16 represents PKC activation by LPA in presenescent and near-senescent human diploid fibroblasts. Subconfluent presenescent (passage 10, Pa 10) and near-senescent (passage 29, Pa 29) fibroblasts were serum-starved for 2 days and treated with 30 μg/ml LPA for the indicated times. PKC activation was indicated by aggregation and translocation of PKC proteins into the plasma membrane. PKC-α was detected under a confocal microscopy system with polyclonal anti-PKC-α antibodies and FITC-conjugated secondary antibodies.

On to lysophosphatidic acid [LPA], for which the PKC activation entry was “further increase in PKC activation”.

Values taken from US20060099568A1, “Signals and molecular species involved in senescence” (priority 2002, published 2006).
